Read-outs that look alike come from different tables or passages of the source.
Legend:
Type in all cases: in vivo
[1] = tested on: poinsettia (EPHHL, Euphorbia heterophylla); test: Postemergence greenhouse trial, herbicidal efficacy on poinsettia; settings: Euphorbia heterophylla, post-emergence, 528 h, read-out: % visual injury, Obs, EPHHL
Procedure: (§1) Seeds of the desired test plant species were planted in Sun Gro MetroMix® 306 planting mixture, which typically has a pH of 6.0 to 6.8 and an organic matter content of about 30 percent, in plastic pots with a surface area of 103.2 square centimeters (cm^2). When required to ensure good germination and healthy plants, a fungicide treatment and/or other chemical or physical treatment was applied. The plants were grown for 7-36 days (d) in a greenhouse with an approximate 14-hour (h) photoperiod which was maintained at about 23° C. during the day and 22° C. during the night. Nutrients and water were added on a regular basis and supplemental lighting was provided with overhead metal halide 1000-Watt lamps as necessary. The plants were employed for testing when they reached the second or third true leaf stage.
(§2) Weighed amounts of technical material were dissolved in a volume of 97:3 volume per volume (v/v) acetone/dimethyl sulfoxide (DMSO) to stock solutions. […] The concentrated stock solutions were diluted with an aqueous mixture of 1.5% v/v of Agri-dex crop oil concentrate to provide the appropriate application rates. Compound requirements are based upon a 12 milliliter (mL) application volume at a rate of 187 liters per hectare (L/ha). Stocks solutions of the safeners were prepared following the same procedure. Spray solutions of the safeners and experimental compound mixtures were prepared by adding the stock solutions to the appropriate amount of dilution solution to form a 12 mL spray solution in two-way combinations. Formulated compounds were applied to the plant material with an overhead Mandel track sprayer equipped with 8002E nozzles calibrated to deliver 187 L/ha over an application area of 0.503 square meters (m^2) at a spray height of 18 inches (43 centimeters (cm)) above average plant canopy. Control plants were sprayed in the same manner with the solvent blank. All herbicide application (component a) rates are in g ae/ha and all safener (component b) rates are in g ai/ha.
(§3) The treated plants and control plants were placed in a greenhouse as described above and watered by sub-irrigation to prevent wash-off of the test compounds. After 20-22 d, the condition of the test plants as compared with that of the control plants was determined visually and scored on a scale of 0 to 100 percent where 0 corresponds to no injury and 100 corresponds to complete kill. The condition of the test plants was compared with that of the control plants as determined visually and scored on a scale of 0 to 100 percent, where 0 corresponds to no injury and 100 corresponds to complete kill. Colby's equation was used to determine the herbicidal effects expected from the mixtures.

[2] = tested on: wild buckwheat (POLCO, Polygonum convolvulus); test: Postemergence greenhouse trial, herbicidal efficacy on wild buckwheat; settings: Fallopia convolvulus, post-emergence, 528 h
Procedure: as §1, §2, §3

[3] = tested on: wheat (TRZAS), Triticum aestivum (spring wheat); test: Postemergence greenhouse trial, crop injury (phytotoxicity/safening) on wheat; settings: applied alone at 35 g/ha, scored 20-22 d, 0 = no injury, 100 = complete kill
Procedure: as §1, §2, §3
(§4) The safener fenchlorazole-ethyl was combined with compound 1, compound 2, compound 3, compound 4, compound 5, and compound 6, and applied to wheat (TRZAS), and the phytotoxicity of the herbicidal compositions was measured. In addition, the efficacy of the herbicidal composition on velvetleaf (ABUTH, Abutilon theophrasti), pigweed (AMARE, Amaranthus retroflexus), winter rape (BRSNW, Brassica napus), lambsquarters (CHEAL, Chenopodium album), thistle (CIRAR, Cirsium arvense), nutsedge (CYPES, Cyperus esculentus), poinsettia (EPHHL, Euphorbia heterophylla), wild buckwheat (POLCO, Polygonum convolvulus), giant foxtail (SETFA, Setaria faberi), sorghum (SORVU, Sorghum bicolor), chickweed (STEME, Stellaria media), and wild pansy (VIOTR, Viola tricolor) was evaluated.
The safener isoxadifen-ethyl was combined with compound 1, compound 2, compound 3, compound 4, compound 5, and compound 6, and applied to wheat (TRZAS), and the phytotoxicity of the herbicidal compositions was measured. […]

[4] = tested on: corn/maize (ZEAMX), Zea mays; test: Postemergence greenhouse trial, crop injury (phytotoxicity/safening) on corn/maize; settings: applied alone at 35 g/ha, rated after 20-22 d
Procedure: as §1
as §2, with “All herbicide application (component a) rates are in g ae/ha and all safener (component b) rates are in g ai/ha.” left out
as §3, with “Colby's equation was used to determine the herbicidal effects expected from the mixtures.” left out
as §4, with “compound” for “compound 3, compound 4, compound”, “corn/maize (ZEAMX)” for “wheat (TRZAS),”, “bicolor), and” for “bicolor),”, “media)” for “media), and wild pansy (VIOTR, Viola tricolor)”
The safener mefenpyr-diethyl was combined with compound 1, compound 2, and compound 5, and applied to corn/maize (ZEAMX) and the phytotoxicity of the herbicidal compositions were measured. […]

[5] = tested on: thistle (CIRAR, Cirsium arvense); test: Postemergence greenhouse trial, herbicidal efficacy on thistle; settings: post-emergence, 528 h
Procedure: as §1, §2, §3

[6] = tested on: pigweed (AMARE, Amaranthus retroflexus); test: Postemergence greenhouse trial, herbicidal efficacy on pigweed; settings: post-emergence, 528 h
Procedure: as §1, §2, §3

[7] = tested on: velvetleaf (ABUTH, Abutilon theophrasti); test: Postemergence greenhouse trial, herbicidal efficacy on velvetleaf; settings: post-emergence, 528 h
Procedure: as §1, §2, §3

[8] = tested on: lambsquarters (CHEAL, Chenopodium album); test: Postemergence greenhouse trial, herbicidal efficacy on lambsquarters; settings: post-emergence, 528 h
Procedure: as §1, §2, §3

[9] = tested on: chickweed (STEME, Stellaria media); test: Postemergence greenhouse trial, herbicidal efficacy on chickweed; settings: post-emergence, 528 h
Procedure: as §1, §2, §3

[10] = tested on: wild pansy (VIOTR, Viola tricolor); test: Postemergence greenhouse trial, herbicidal efficacy on wild pansy; settings: for pest or weed control at 35 g/ha: Viola tricolor, post-emergence, 528 h, read-out: Obs, % visual injury, VIOTR; for % visual injury, Obs, VIOTR: rated after 20-22 d
Procedure: as §1, §2, §3

[11] = tested on: sorghum (SORVU, Sorghum bicolor); test: Postemergence greenhouse trial, herbicidal efficacy on sorghum; settings: applied alone at 35 g/ha; for % visual injury, Obs, SORVU: rated after 20-22 d
Procedure: as §1, §2, §3

[12] = tested on: winter rape (BRSNW, Brassica napus); test: Postemergence greenhouse trial, herbicidal efficacy on winter rape; settings: post-emergence, 528 h
Procedure: as §1, §2, §3

[13] = tested on: giant foxtail (SETFA, Setaria faberi); test: Postemergence greenhouse trial, herbicidal efficacy on giant foxtail; settings: applied alone at 35 g/ha; for % visual injury, Obs, SETFA: rated after 20-22 d; for Obs, % visual injury, SETFA: scored 20-22 d
Procedure: as §1, §2, §3

[14] = tested on: nutsedge (CYPES, Cyperus esculentus); test: Postemergence greenhouse trial, herbicidal efficacy on nutsedge; settings: applied alone at 35 g/ha, rated after 20-22 d
Procedure: as §1, §2, §3

[15] = applied alone at 35 g/ha, postemergence
[16] = read-out: % visual injury, Obs, POLCO
[17] = read-out: Obs, % visual injury, POLCO
[18] = read-out: % visual injury, Obs, CIRAR
[19] = read-out: Obs, % visual injury, CIRAR
[20] = read-out: % visual injury, Obs, AMARE
[21] = read-out: Obs, % visual injury, AMARE
[22] = read-out: % visual injury, Obs, ABUTH
[23] = read-out: Obs, % visual injury, ABUTH
[24] = read-out: % visual injury, Obs, CHEAL
[25] = read-out: Obs, % visual injury, CHEAL
[26] = read-out: % visual injury, Obs, STEME
[27] = read-out: Obs, % visual injury, STEME
[28] = read-out: % visual injury, Obs, BRSNW
[29] = read-out: Obs, % visual injury, BRSNW

Compound | Obs, % visual injury, TRZAS [3] | % visual injury, Obs, ZEAMX [4] | % visual injury, Obs, VIOTR [10, 15] | % visual injury, Obs, SORVU [11] | % visual injury, Obs, SETFA [13] | Obs, % visual injury, SETFA [13] | pest or weed control at 35 g/ha [1] | pest or weed control at 35 g/ha [2, 16] | pest or weed control at 35 g/ha [2, 17] | pest or weed control at 35 g/ha [5, 18] | pest or weed control at 35 g/ha [5, 19] | pest or weed control at 35 g/ha [6, 20] | pest or weed control at 35 g/ha [6, 21] | pest or weed control at 35 g/ha [7, 22] | pest or weed control at 35 g/ha [7, 23] | pest or weed control at 35 g/ha [8, 24] | pest or weed control at 35 g/ha [8, 25] | pest or weed control at 35 g/ha [9, 26] | pest or weed control at 35 g/ha [9, 27] | pest or weed control at 35 g/ha [10] | other results
COCC(=O)n1ccc2ccc(-c3nc(C(=O)OC)c(Cl)c(N)c3F)c(F)c21 [compound 6] | 35% | 25% | 30% | 70% | 10% | 10% |  |  |  |  |  |  |  |  |  |  |  |  |  |  | pest or weed control at 35 g/ha ([1]; applied alone at 35 g/ha, postemergence, rated after 20-22 d): 100%; pest or weed control at 35 g/ha ([2]; applied alone at 35 g/ha, postemergence, rated after 20-22 d, read-out: % visual injury, Obs, POLCO): 97%; pest or weed control at 35 g/ha ([2]; applied alone at 35 g/ha, postemergence, scored 20-22 d, read-out: Obs, % visual injury, POLCO): 97%; pest or weed control at 35 g/ha ([5]; applied alone at 35 g/ha, postemergence, rated after 20-22 d, read-out: % visual injury, Obs, CIRAR): 75%; pest or weed control at 35 g/ha ([5]; applied alone at 35 g/ha, postemergence, scored 20-22 d, read-out: Obs, % visual injury, CIRAR): 75%; pest or weed control at 35 g/ha ([6]; applied alone at 35 g/ha, postemergence, rated after 20-22 d, read-out: % visual injury, Obs, AMARE): 100%; pest or weed control at 35 g/ha ([6]; applied alone at 35 g/ha, postemergence, scored 20-22 d, read-out: Obs, % visual injury, AMARE): 100%; pest or weed control at 35 g/ha ([7]; applied alone at 35 g/ha, postemergence, rated after 20-22 d, read-out: % visual injury, Obs, ABUTH): 80%; pest or weed control at 35 g/ha ([7]; applied alone at 35 g/ha, postemergence, scored 20-22 d, read-out: Obs, % visual injury, ABUTH): 80%; pest or weed control at 35 g/ha ([8]; applied alone at 35 g/ha, postemergence, rated after 20-22 d, read-out: % visual injury, Obs, CHEAL): 100%; pest or weed control at 35 g/ha ([8]; applied alone at 35 g/ha, postemergence, scored 20-22 d, read-out: Obs, % visual injury, CHEAL): 100%; pest or weed control at 35 g/ha ([9]; applied alone at 35 g/ha, postemergence, rated after 20-22 d, read-out: % visual injury, Obs, STEME): 97%; pest or weed control at 35 g/ha ([9]; applied alone at 35 g/ha, postemergence, scored 20-22 d, read-out: Obs, % visual injury, STEME): 97%; pest or weed control at 35 g/ha ([10]; applied alone at 35 g/ha, postemergence, scored 20-22 d): 30%; plant injury at 35 g/ha ([12]; applied alone at 35 g/ha, postemergence, rated after 20-22 d, read-out: % visual injury, Obs, BRSNW): 75%; plant injury at 35 g/ha ([12]; applied alone at 35 g/ha, postemergence, scored 20-22 d, read-out: Obs, % visual injury, BRSNW): 75%
CCOC(=O)C1=NN(c2ccc(Cl)cc2Cl)C(C)(C(=O)OCC)C1 (centres unmarked) [mefenpyr-diethyl, reference compound] | 0% | 0% | 0% | 0% |  |  | 0% | 0% | 0% | 0% | 0% | 0% | 0% | 0% | 0% | 0% | 0% | 0% | 0% | 0% | % visual injury, Obs, CYPES [14]: 0%; Obs, % visual injury, SORVU ([11]; scored 20-22 d): 0%; plant injury at 35 g/ha [12, 28]: 0%; plant injury at 35 g/ha [12, 29]: 0%
CCOC(=O)C1=NOC(c2ccccc2)(c2ccccc2)C1 [isoxadifen-ethyl, reference compound] | 0% | 0% | 0% |  | 0% | 0% | 0% | 0% | 0% | 0% | 0% | 0% | 0% | 0% | 0% | 0% | 0% | 0% | 0% | 0% | plant injury at 35 g/ha [12, 28]: 0%; plant injury at 35 g/ha [12, 29]: 0%

From patent US20160135455A1, “SAFENED HERBICIDAL COMPOSITIONS COMPRISING PYRIDINE CARBOXYLIC ACIDS” (Dow AgroSciences LLC, priority 2014, published 2016)
